Reference: ChEMBL document CHEMBL1201862, “PubChem BioAssay data set” (2004)
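The compound was tested at five concentrations on cells cultured in 96-well plates, with a 48-hour exposure period. GI50: concentration for 50% inhibition of growth.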 The source made the active and inactive calls. No stated cut-off is given here; in the data, active = GI50 up to about 1.1 µM and inactive = higher.

Columns and labels:
Test in all cases: NCI anticancer screen, dose series, 48 h
Malme-3M = tested on: Malme-3M
NCI-H23 = tested on: NCI-H23
SF-268 = tested on: SF-268
HOP-62 = tested on: HOP-62
HCC 2998 = tested on: HCC 2998
OVCAR-8 = tested on: OVCAR-8
CCRF-CEM = tested on: CCRF-CEM
A549 = tested on: A549
Hs-578T = tested on: Hs-578T
HOP-92 = tested on: HOP-92
SK-MEL-2 = tested on: SK-MEL-2
BT-549 = tested on: BT-549
HT-29 = tested on: HT-29
MDA-N = tested on: MDA-N
MCF7 = tested on: MCF7
SF-539 = tested on: SF-539
UO-31 = tested on: UO-31
NCI-H226 = tested on: NCI-H226
MDA-MB-231 = tested on: MDA-MB-231
COLO 205 = tested on: COLO 205
T47D = tested on: T47D
RPMI-8226 = tested on: RPMI-8226
HCT-15 = tested on: HCT-15
SF-295 = tested on: SF-295
NCI/ADR-RES = tested on: NCI/ADR-RES
SK-MEL-5 = tested on: SK-MEL-5
ACHN = tested on: ACHN
UACC-62 = tested on: UACC-62
NCI-H460 = tested on: NCI-H460
786-0 = tested on: 786-0
SW-620 = tested on: SW-620
UACC-257 = tested on: UACC-257
LOX IMVI = tested on: LOX IMVI
NCI-H522 = tested on: NCI-H522
PC-3 = tested on: PC-3
SK-MEL-28 = tested on: SK-MEL-28
OVCAR-3 = tested on: OVCAR-3
M14 = tested on: M14
OVCAR-4 = tested on: OVCAR-4
SNB-19 = tested on: SNB-19
A498 = tested on: A498
HCT-116 = tested on: HCT-116
U-251 = tested on: U-251
RXF 393 = tested on: RXF 393
KM12 = tested on: KM12
EKVX = tested on: EKVX
SN12C = tested on: SN12C
CAKI-1 = tested on: CAKI-1
MDA-MB-435 = tested on: MDA-MB-435
DU-145 = tested on: DU-145
SK-OV-3 = tested on: SK-OV-3
TK-10 = tested on: TK-10
HL-60 = tested on: HL-60
OVCAR-5 = tested on: OVCAR-5
K562 = tested on: K562
MOLT-4 = tested on: MOLT-4
SR = tested on: SR
SNB-75 = tested on: SNB-75
IGROV-1 = tested on: IGROV-1

Measured: GI50

O=[N+]([O-])c1cc2c([N+](=O)[O-])cccc2o1
4.59 µM: HCT-15
inactive: Malme-3M 13.6 µM | NCI-H23 15.8 µM | SF-268 15.7 µM | HOP-62 18.5 µM | HCC 2998 17.6 µM | OVCAR-8 17 µM | CCRF-CEM 2.48 µM | A549 30.1 µM | Hs-578T 13.1 µM | HOP-92 17.4 µM | SK-MEL-2 9.16 µM | BT-549 15.7 µM | HT-29 4.09 µM | MDA-N 7.93 µM | MCF7 3.5 µM | SF-539 2.49 µM | UO-31 1.88 µM | NCI-H226 12.6 µM | MDA-MB-231 12.3 µM | COLO 205 4.57 µM | T47D 6.7 µM | RPMI-8226 2.85 µM | SF-295 22.9 µM | NCI/ADR-RES 14.3 µM | SK-MEL-5 16.7 µM | ACHN 3.34 µM | UACC-62 13 µM | NCI-H460 > 100 µM | 786-0 2.17 µM | SW-620 2.86 µM | UACC-257 6.93 µM | LOX IMVI 3.66 µM | PC-3 12.4 µM | SK-MEL-28 3.15 µM | OVCAR-3 5.01 µM | M14 10.2 µM | OVCAR-4 1.58 µM | SNB-19 19.2 µM | A498 22.4 µM | HCT-116 2.72 µM | U-251 18.4 µM | RXF 393 5.51 µM | KM12 15.2 µM | EKVX 2.56 µM | SN12C 12.1 µM | CAKI-1 2.22 µM | MDA-MB-435 18 µM | DU-145 14.7 µM | SK-OV-3 16.8 µM | TK-10 9.25 µM
active: NCI-H522 0.479 µM

COc1ccc(-c2cc(-c3ccc(O)cc3O)c(C#N)c(=O)[nH]2)cc1
31.9 µM: HCT-15
inactive: Malme-3M 23.1 µM | HL-60 29.7 µM | NCI-H23 26.2 µM | SF-268 24.3 µM | HOP-62 17.9 µM | OVCAR-8 31.9 µM | CCRF-CEM 23.9 µM | A549 23.4 µM | Hs-578T 18.5 µM | HOP-92 12.6 µM | BT-549 23.6 µM | HT-29 18.1 µM | MDA-N 11.6 µM | MCF7 27 µM | SF-539 17.6 µM | UO-31 34.4 µM | NCI-H226 20.6 µM | MDA-MB-231 17.3 µM | COLO 205 16.6 µM | T47D 93.3 µM | RPMI-8226 15.7 µM | SF-295 15.7 µM | NCI/ADR-RES 19.6 µM | SK-MEL-5 15.5 µM | ACHN 43.2 µM | UACC-62 15.8 µM | NCI-H460 23.1 µM | 786-0 18.5 µM | SW-620 21.3 µM | UACC-257 19.5 µM | LOX IMVI 16.6 µM | PC-3 14.4 µM | SK-MEL-28 15.1 µM | OVCAR-3 20.5 µM | M14 16 µM | OVCAR-4 20.1 µM | OVCAR-5 18.6 µM | SNB-19 21.9 µM | K562 25.2 µM | HCT-116 19.1 µM | U-251 18.7 µM | RXF 393 15.9 µM | KM12 22.6 µM | EKVX 15.2 µM | SN12C 18.8 µM | CAKI-1 23.8 µM | MDA-MB-435 13.8 µM | DU-145 40.6 µM | MOLT-4 18.6 µM | SK-OV-3 16.1 µM | SR 16.7 µM | TK-10 26.5 µM

CCC(=O)NCCc1c2c3c(ccnc3c3ncsc13)-c1ccccc1N2 [KUANONIAMINE C]
2.51 µM: HCT-15
active: HL-60 0.845 µM | HCC 2998 0.692 µM | A549 0.771 µM | Hs-578T 0.368 µM | HT-29 0.541 µM | MDA-N 0.324 µM | MCF7 0.0223 µM | SF-539 1.06 µM | UO-31 0.53 µM | NCI-H226 0.91 µM | RPMI-8226 0.401 µM | SF-295 1.12 µM | ACHN 0.583 µM | 786-0 0.791 µM | LOX IMVI 1.05 µM | A498 0.989 µM | HCT-116 0.582 µM | SN12C 0.724 µM | DU-145 0.603 µM
inactive: Malme-3M 2.62 µM | NCI-H23 1.92 µM | SF-268 1.45 µM | HOP-62 2.94 µM | OVCAR-8 3.28 µM | SNB-75 6.89 µM | CCRF-CEM 2.86 µM | SK-MEL-2 43.2 µM | BT-549 2.69 µM | IGROV-1 2.81 µM | MDA-MB-231 4.02 µM | COLO 205 1.45 µM | T47D 6.75 µM | NCI/ADR-RES 4.99 µM | SK-MEL-5 2.72 µM | UACC-62 1.63 µM | NCI-H460 1.16 µM | SW-620 1.18 µM | UACC-257 6 µM | NCI-H522 2.62 µM | PC-3 1.41 µM | SK-MEL-28 2.56 µM | OVCAR-3 10.5 µM | M14 2.73 µM | OVCAR-4 30.4 µM | OVCAR-5 8.17 µM | SNB-19 4.36 µM | K562 1.53 µM | U-251 1.41 µM | RXF 393 4.16 µM | KM12 2.33 µM | EKVX 5.22 µM | CAKI-1 5.74 µM | MDA-MB-435 2.26 µM | MOLT-4 1.4 µM | SK-OV-3 12.2 µM | TK-10 6.32 µM
